From patent US20040167181A1, “Methods of treating conditions associated with an Edg-3 receptor” (priority 2003, published 2004)

Columns and labels:
Edg-5 = target: T1, Edg-5 (Homo sapiens, UniProt O95136); assay: S1P-stimulated calcium increases in HTC cells expressing Edg-5; assay type: cell-based; settings: concentrations as high as 10 μM
T1 construct: expressed in transfected cells; host or cells: HTC (rat hepatoma) cells

[1] = tested on: Muscarinic non-selective, Central; assay type: binding; settings: Wistar rat cerebral cortex; 0.29 nM 3H Quinuclidinyl benzilate; significance criteria ≦50% of max stimulation or inhibition
[2] = tested on: Serotonin 5-HT1, non-selective; assay: Radioligand binding assay, Serotonin 5-HT1, non-selective; settings: Wistar rat cerebral cortex; 2 nM 3H Serotonin (5-HT) Trifluoroacetate; significance criteria ≦50% of max stimulation or inhibition
Description: (§1) In order to test the selectivity of compounds, various radioligand binding assays were performed using numerous non-Edg receptor targets as listed below.
(§2) A radioligand binding assay was performed using adrenergic α1 according to the method of Greengrass and Bremner 1979, Eur. J. Pharmacol. 55:323-326. A radioligand binding assay was performed using adrenergic α2 according to the method of Boyajian and Leslie, 1987, J. Pharmacol. Exp. Ther. 241:1092-1098. A radioligand binding assay was performed using adrenergic β according to the method of Feve et al., 1994, Proc. Natl. Acad. Sci. USA 91:5677-5681. A radioligand binding assay was performed using angiotensin AT2 according to the method of Whitebread et al., 1991, Biochem. Biophys. Res. Comm. 181:1365-1371. A radioligand binding assay was performed using calcium channel Type L, dihydropyridine according to the method of Ehlert et al., 1982, Life Sci. 30:2191-2202. A radioligand binding assay was performed using dopamine D2L according to the method of Bunzo et al., 1988, Nature 336:783-787. A radioligand binding assay was performed using endothelin ETA according to the method of Mihara et al., 1994, J. Pharmacol. Exp Ther. 268:1122-1127. A radioligand binding assay was performed using histamine H1 Central according to the method of Hill et al., 1978, J. Neurochem. 31:997-1004. […]
(§3) Quantitation Method: Radioligand Binding […]

Angiotensin AT2 = target: T2, Angiotensin AT2 (Homo sapiens, UniProt P50052); assay: Radioligand binding assay, Angiotensin AT2; settings: Human recombinant Hela cells; 0.025 nM 125I CGP-42112A; significance criteria ≦50% of max stimulation or inhibition
T2 construct: expressed in transfected cells; host or cells: Hela cells
T2 sequence (P50052 1-363): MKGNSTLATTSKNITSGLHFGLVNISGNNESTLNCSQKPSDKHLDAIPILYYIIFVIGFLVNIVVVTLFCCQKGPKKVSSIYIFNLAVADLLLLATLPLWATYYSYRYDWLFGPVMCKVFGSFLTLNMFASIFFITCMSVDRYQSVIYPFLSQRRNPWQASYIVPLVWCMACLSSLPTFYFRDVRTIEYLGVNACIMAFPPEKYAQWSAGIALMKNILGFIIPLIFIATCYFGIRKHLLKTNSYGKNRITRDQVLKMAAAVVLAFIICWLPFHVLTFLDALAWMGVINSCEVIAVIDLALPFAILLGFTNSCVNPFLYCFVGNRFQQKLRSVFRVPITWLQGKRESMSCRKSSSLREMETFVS
Description: as §1, §2, §3

Edg-7 = target: T3, Edg-7 (Homo sapiens, UniProt Q9UBY5); assay: LPA-stimulated calcium increases in HTC cells expressing Edg-7; assay type: cell-based; settings: concentrations as high as 10 μM
T3 construct: expressed in transfected cells; host or cells: HTC (rat hepatoma) cells
T3 sequence (Q9UBY5 1-353): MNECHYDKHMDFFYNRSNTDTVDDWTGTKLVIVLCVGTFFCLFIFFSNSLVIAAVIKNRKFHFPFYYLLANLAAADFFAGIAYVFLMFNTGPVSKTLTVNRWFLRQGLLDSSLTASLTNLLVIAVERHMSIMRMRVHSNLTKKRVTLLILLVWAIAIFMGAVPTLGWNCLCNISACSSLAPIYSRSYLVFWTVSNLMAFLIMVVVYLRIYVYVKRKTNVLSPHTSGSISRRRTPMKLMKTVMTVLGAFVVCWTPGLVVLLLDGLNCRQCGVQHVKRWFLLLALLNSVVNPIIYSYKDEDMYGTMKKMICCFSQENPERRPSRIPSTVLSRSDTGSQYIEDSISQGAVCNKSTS

Edg-8 = target: T4, Edg-8 (Homo sapiens, UniProt Q9H228); assay: S1P-stimulated calcium increases in HTC cells expressing Edg-8; assay type: cell-based; settings: concentrations as high as 10 μM
T4 construct: expressed in transfected cells; host or cells: HTC (rat hepatoma) cells
T4 sequence (Q9H228 whole entry, species assumed): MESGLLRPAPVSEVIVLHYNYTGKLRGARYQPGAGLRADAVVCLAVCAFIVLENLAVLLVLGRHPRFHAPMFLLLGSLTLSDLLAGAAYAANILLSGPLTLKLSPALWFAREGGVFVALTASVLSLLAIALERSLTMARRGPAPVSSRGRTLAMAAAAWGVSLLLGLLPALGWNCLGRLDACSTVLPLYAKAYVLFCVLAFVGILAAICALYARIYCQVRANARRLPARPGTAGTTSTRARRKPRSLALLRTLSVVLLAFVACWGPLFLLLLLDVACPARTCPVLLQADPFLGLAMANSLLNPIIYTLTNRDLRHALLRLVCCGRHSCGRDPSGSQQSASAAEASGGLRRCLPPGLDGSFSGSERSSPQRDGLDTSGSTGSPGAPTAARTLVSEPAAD

Edg-2 = target: T5, Edg-2 (Homo sapiens, UniProt Q92633); assay: LPA-stimulated calcium increases in HTC cells expressing Edg-2; assay type: cell-based; settings: concentrations as high as 10 μM
T5 construct: expressed in transfected cells; host or cells: HTC (rat hepatoma) cells
T5 sequence (Q92633 whole entry): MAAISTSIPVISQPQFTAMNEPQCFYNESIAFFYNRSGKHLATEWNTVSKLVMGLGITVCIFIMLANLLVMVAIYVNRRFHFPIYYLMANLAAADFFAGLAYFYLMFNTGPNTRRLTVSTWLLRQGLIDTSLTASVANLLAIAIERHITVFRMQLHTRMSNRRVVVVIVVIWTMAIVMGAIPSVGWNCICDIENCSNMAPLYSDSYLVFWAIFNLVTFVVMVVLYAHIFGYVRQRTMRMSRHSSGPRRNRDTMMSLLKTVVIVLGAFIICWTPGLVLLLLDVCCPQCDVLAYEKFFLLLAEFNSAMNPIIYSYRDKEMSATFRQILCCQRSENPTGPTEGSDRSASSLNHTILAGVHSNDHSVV

Edg-1 = target: T6, Edg-1 (Homo sapiens, UniProt P21453); assay: S1P-stimulated calcium increases in HTC cells expressing Edg-1; assay type: cell-based; settings: concentrations as high as 10 μM
T6 construct: expressed in transfected cells; host or cells: HTC (rat hepatoma) cells
T6 sequence (P21453 whole entry): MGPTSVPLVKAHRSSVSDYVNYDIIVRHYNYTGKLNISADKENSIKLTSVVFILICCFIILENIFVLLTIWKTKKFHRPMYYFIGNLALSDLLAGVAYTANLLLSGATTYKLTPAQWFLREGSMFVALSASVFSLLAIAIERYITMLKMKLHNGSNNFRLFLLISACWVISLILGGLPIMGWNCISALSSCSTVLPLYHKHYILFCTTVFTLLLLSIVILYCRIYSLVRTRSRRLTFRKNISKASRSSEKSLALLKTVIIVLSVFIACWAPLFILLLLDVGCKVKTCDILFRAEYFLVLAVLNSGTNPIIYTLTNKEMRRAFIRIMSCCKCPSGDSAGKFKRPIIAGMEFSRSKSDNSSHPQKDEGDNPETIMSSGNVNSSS

Edg-4 = target: T7, Edg-4 (Homo sapiens, UniProt Q9HBW0); assay: LPA-stimulated calcium increases in HTC cells expressing Edg-4; assay type: cell-based; settings: concentrations as high as 10 μM
T7 construct: expressed in transfected cells; host or cells: HTC (rat hepatoma) cells
T7 sequence (Q9HBW0 whole entry, species assumed): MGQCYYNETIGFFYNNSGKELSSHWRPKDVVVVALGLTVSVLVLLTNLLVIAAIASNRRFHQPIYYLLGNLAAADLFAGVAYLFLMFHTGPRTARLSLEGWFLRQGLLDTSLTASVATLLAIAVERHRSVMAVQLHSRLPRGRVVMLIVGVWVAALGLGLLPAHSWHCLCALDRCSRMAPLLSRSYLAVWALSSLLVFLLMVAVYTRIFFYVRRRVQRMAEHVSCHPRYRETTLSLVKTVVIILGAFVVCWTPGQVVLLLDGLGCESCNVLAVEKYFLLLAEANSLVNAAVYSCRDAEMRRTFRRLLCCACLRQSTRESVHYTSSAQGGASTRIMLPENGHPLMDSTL

Edg-6 = target: T8, Edg-6 (Homo sapiens, UniProt O95977); assay: S1P-stimulated calcium increases in HTC cells expressing Edg-6; assay type: cell-based; settings: concentrations as high as 10 μM
T8 construct: expressed in transfected cells; host or cells: HTC (rat hepatoma) cells
T8 sequence (O95977 1-384): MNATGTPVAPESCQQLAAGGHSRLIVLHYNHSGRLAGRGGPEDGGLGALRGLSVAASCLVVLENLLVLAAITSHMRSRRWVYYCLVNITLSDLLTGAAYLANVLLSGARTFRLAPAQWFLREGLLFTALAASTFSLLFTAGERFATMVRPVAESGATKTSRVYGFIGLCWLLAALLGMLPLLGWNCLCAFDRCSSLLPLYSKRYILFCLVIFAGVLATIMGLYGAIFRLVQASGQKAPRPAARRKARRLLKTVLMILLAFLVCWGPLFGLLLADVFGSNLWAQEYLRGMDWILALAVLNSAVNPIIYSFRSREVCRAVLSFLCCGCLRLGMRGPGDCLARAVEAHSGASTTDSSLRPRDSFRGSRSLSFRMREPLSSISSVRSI

T1 sequence (O95136 whole entry, species assumed): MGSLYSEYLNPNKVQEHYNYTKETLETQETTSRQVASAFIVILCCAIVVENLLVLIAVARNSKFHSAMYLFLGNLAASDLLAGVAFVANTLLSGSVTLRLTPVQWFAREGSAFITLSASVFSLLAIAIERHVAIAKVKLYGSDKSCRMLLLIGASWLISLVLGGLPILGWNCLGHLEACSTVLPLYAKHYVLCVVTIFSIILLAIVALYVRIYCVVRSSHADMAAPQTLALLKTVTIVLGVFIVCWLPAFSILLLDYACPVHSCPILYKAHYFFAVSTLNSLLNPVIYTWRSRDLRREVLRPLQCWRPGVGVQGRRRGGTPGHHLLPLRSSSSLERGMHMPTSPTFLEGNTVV

Cc1c(-c2ccccc2)nc2ccccc2c1C(=O)NCc1ccc(F)cc1 [Compound 101]
inhibition of S1P-stimulated calcium increases (Edg-5): did not inhibit
activity in radioligand binding assay [1]: no significant activity
activity in radioligand binding assay [2]: no significant activity
activity in radioligand binding assay (Angiotensin AT2): no significant activity
inhibition of LPA-stimulated calcium increases (Edg-7): did not inhibit
inhibition of S1P-stimulated calcium increases (Edg-8): did not inhibit
inhibition of LPA-stimulated calcium increases (Edg-2): did not inhibit
inhibition of S1P-stimulated calcium increases (Edg-1): did not inhibit
inhibition of LPA-stimulated calcium increases (Edg-4): did not inhibit
inhibition of S1P-stimulated calcium increases (Edg-6): did not inhibit
